# Experimental data from US8877163B2, “Cycloalkyl triamine pentacarboxylate as ligands for paramagnetic metal complexes” (Kaohsiung Medical University, priority 2006, dated 2014).
# Like-named read-outs stand apart in the source and are kept apart here.
# Columns and labels:
# [1] = 20 MHz, 37.0 ± 0.1° C., pH 7.6 ± 0.1; P. Caravan et al.; cited from earlier work
# [2] = cited from earlier work
# [3] = incubation with zinc (II) for three days; 20 MHz, 37.0 ± 0.1° C.; reported by S. Laurent et al; cited from earlier work
# [4] = Stability constants of the gadolinium complex by potentiometric titration (BEST program); assay type: physicochemical
# Excerpt: Presently, there are two ways for calculating the thermodynamic stability constant of a metal complex by the potentiometric titration. […] The second method is suitable for the metal complex whose disassociation rate is less than 25% at low pH (such as pH 2). Take the metal complex of the present invention for instance, since it is not able to form a complex with the ligand at a pH value around 2, the thermodynamic stability constant thereof must be calculated by the previous method. The equation for the thermodynamic stability constant is defined as follows: [formula] where M represents the metal ion, L represents the ligand, and ML represents the metal complex. […] The thermodynamic stability constants for the metal complexes with CB-TTDA are determined from the titration data with the FORTRAN computer program BEST as shown in Table 2 with the reported thermodynamic stability constants of TTDA and DTPA, which are respectively reported by Y M. Wang et al., Inorganic Chemistry, vol. 44, page 382, 2005 and by P. Caravan et al., Inorganic Chemistry, vol. 44, page 2170, 2001. The conditional stability constant (Kcond) specifies the degree of metal chelation at a given pH and is defined as follows: […] [formula] where LT is the total concentration of the uncomplexed ligand, which is defined by the following equation: […]
# human serum albumin = human serum albumin (Homo sapiens, UniProt P02768); conditions: bound to human serum albumin; cited from earlier work
# [5] = after removal of the galactopyranoside by β-gal; cited from earlier work
# [6] = Kinetic stability of the gadolinium complex toward zinc (II) transmetallation (relaxation rate ratio); assay type: physicochemical; conditions: incubation with zinc (II) for three days; phosphate buffer pH 7.4, 2.5 mM ZnCl2, 2.5 mM complex; 20 MHz, 37.0 ± 0.1° C.
# Excerpt: Among Zn^2+, Ca^2+, Cu^2+ and other metal ions, the zinc (II) combines a rather high concentration with high affinity toward poly(amino carboxylate) and may result in the gadolinium complex dissociation in vivo. […] The reciprocal of the longitudinal relaxation time is the water proton paramagnetic longitudinal relaxation rate, R1^P(t), where the ration of R1^P(t)|R1^P(0) represents the stability of the gadolinium complex for Zn^2+. […] Based on the mentioned principle, the kinetic stability of the gadolinium complex for zinc (II) could be measured. […] Laurent et al, Invest. Radiol., vol. 36, page 155, 2001.
# [7] = Relaxivity r1 by 20 MHz relaxometer; assay type: physicochemical; conditions: 37.0 ± 0.1° C., pH 7.4 ± 0.1
# Excerpt: Mainly, the relaxivity of paramagnetic metal complex is affected by two factors, the inner-sphere and the outer-sphere relaxivities. Due to the existence of inner water molecules of the ligand of the present invention, the relaxivity thereof is mainly affected by the change of the inner-sphere relaxivity rather than the outer-sphere relaxivity (the outer-sphere relaxivity is considered similar to other ligands). The relaxivity of [Gd(CB-TTDA)]^2− is higher than those of [Gd(TTDA)]^2− (Y. M. Wang et al., Inorganic Chemistry, vol. 44, page 382, 2005) and [Gd(DTPA)]^2− (P. Caravan et al., Inorganic Chemistry, vol. 44, page 2170, 2001).
# human serum albumin, sequence (P02768 25-609): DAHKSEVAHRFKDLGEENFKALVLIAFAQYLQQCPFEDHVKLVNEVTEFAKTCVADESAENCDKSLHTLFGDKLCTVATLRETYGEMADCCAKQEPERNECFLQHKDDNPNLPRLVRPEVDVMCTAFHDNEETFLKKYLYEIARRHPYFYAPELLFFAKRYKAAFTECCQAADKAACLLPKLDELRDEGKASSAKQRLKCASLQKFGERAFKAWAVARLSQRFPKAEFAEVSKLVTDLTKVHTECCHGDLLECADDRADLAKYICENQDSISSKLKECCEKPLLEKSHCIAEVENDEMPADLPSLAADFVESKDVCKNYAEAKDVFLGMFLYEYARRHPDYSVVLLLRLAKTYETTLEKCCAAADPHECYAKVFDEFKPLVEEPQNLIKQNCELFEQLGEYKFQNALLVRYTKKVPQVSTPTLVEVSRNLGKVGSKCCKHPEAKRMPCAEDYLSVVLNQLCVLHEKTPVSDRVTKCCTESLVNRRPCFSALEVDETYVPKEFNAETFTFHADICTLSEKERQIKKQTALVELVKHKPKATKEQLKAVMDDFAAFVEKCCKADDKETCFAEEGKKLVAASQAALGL
compound,measurement,setting,value
"CNC[C@H](O)[C@@H](O)[C@H](O)[C@H](O)CO.CNC[C@H](O)[C@@H](O)[C@H](O)[C@H](O)CO.O=C([O-])CN(CCN(CC(=O)[O-])CC(=O)O)CCN(CC(=O)[O-])CC(=O)O.[Gd+3] [[Gd(DTPA)]^2−, gadopentetate dimeglumine]",relaxivity r1,[1],3.89 ± 0.03 mM⁻¹ s⁻¹
same,relaxivity,[2]; 20 MHz and 298 K,3.89 mM⁻¹ s⁻¹
same,relaxivity,"[2]; Fulvio U. et al., 1995",3.77 mM⁻¹ s⁻¹
same,R1^p (t = 3days)/R1^p (t = 0 days),[3],49.79%
same,calculated conditional stability constant of the gadolinium complex,[4]; pH = 7.4,18.14
same,relaxivity for the combination with human serum albumin,human serum albumin,33.0 mM⁻¹ s⁻¹
"O=C([O-])CN1CCN(CCO[C@@H]2O[C@H](CO)[C@H](O)[C@H](O)[C@H]2O)CCN(CC(=O)[O-])CCN(CC(=O)[O-])CC1.[Gd+3] [Egad, 4,7,10-tri(aceticacid)-1-(2-β-galactopyranosylethoxy)-1,4,7,10-tetraazacyclododecane gadolinium (III)]",number of inner space water molecules after hydrolysis by β-galactosidase,[5],1.2
O=C([O-])CN(CCN(CC(=O)[O-])CC1(CN(CC(=O)[O-])CC(=O)[O-])CCC1)CC(=O)[O-].[Gd+3] [[Gd(CB-TTDA)]^2−],calculated conditional stability constant of the gadolinium complex,[4],15.83
same,log KML [GdL]/[Gd][L] (thermodynamic stability constant),[4],20.28
same,R1^p (t = 3days)/R1^p (t = 0 days),[6],47.4%
same,relaxivity r1,[7],4.12 ± 0.05 mM⁻¹ s⁻¹
